For 31 compounds, IC50 results are on record in US20230159489A1, “PHD INHIBITOR COMPOUNDS, COMPOSITIONS, AND USE” (Akebia Therapeutics, Inc., priority 2020, published 2023).

Where a name gives a salt, the structure may show the parent alone.

The target in assay [1] is full-length human PHD2 (Homo sapiens, UniProt Q9GZT9). Kind of assay: TR-FRET assay, enzymatic IC50 against PHD2. (In general: TR-FRET usually uses a lanthanide donor and a delayed reading to cut background.)
In assay [2] the target is T1, full-length human PHD1 (Homo sapiens, UniProt Q96KS0).
T1 construct: FLAG (N); purchased Active Motif 81064; host or cells: baculovirus expression system
As to the kind of experiment: TR-FRET assay, enzymatic IC50 against PHD1. Also: 15 nM PHD1. The format is biochemical. An excerpt: PHD1 was expressed in a baculovirus expression system as the full-length protein (NCBI accession number NP_542770.2) with an N-terminal FLAG tag (molecular weight 44.9 kDa).

full-length human PHD2, sequence (Q9GZT9 whole entry): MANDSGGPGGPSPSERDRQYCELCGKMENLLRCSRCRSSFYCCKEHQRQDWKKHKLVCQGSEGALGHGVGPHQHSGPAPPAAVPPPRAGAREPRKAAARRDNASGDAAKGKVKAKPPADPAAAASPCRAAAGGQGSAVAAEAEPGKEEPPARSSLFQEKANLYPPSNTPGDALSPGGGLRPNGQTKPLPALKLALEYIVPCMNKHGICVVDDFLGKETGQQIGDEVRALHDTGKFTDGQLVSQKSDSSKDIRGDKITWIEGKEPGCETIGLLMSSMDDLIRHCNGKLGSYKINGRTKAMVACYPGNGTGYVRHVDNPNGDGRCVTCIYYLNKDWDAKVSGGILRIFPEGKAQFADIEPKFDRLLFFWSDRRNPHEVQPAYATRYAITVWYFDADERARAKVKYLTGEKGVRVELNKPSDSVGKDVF
T1 sequence (Q96KS0 whole entry): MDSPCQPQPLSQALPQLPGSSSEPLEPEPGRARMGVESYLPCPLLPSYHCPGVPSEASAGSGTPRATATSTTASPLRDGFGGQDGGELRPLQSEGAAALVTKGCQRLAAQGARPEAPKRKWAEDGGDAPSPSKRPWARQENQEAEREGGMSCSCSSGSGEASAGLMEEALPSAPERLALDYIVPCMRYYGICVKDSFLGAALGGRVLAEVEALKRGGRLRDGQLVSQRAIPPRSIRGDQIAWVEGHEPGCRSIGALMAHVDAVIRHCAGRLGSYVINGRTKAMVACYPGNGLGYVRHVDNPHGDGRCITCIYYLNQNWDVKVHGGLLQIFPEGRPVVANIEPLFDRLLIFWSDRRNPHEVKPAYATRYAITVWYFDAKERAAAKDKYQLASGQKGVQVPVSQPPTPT

In the case of `Cc1nn(-c2ccc(S(=N)(=O)N(C)C)cn2)c(O)c1-c1ccc(C#N)cc1` (centres unmarked) [Compound 25, 6-(4-(4-cyanophenyl)-5-hydroxy-3-methyl-1H-pyrazol-1-yl)-N,N-dimethylpyridine-3-sulfonimidamide], the 50% inhibitory concentration (IC50) in assay [1] and in assay [2] was below 0.1 µM in each case.

`CNS(=N)(=O)c1ccc(-n2nc(C)c(-c3ccc(C#N)cc3)c2O)nc1` (centres unmarked) [Compound 26, 6-(4-(4-cyanophenyl)-5-hydroxy-3-methyl-1H-pyrazol-1-yl)-N-methylpyridine-3-sulfonimidamide]: the IC50 in assay [1] and in assay [2] was below 0.1 µM throughout.

In the case of `Cc1nn(-c2ccc(C(=O)NS(C)(=O)=O)cn2)c(O)c1-c1ccc(Cl)cc1` [Compound 28, 6-(4-(4-chlorophenyl)-5-hydroxy-3-methyl-1H-pyrazol-1-yl)-N-(methylsulfonyl)nicotinamide], the IC50 (usually the concentration at which inhibition is half-maximal) in assay [1] is 0.1 to 1 µM; in assay [2] it was below 0.1 µM.

As for `CC(=O)NS(=O)(=O)c1ccc(-n2nc(C)c(-c3ccc(C#N)cc3)c2O)nc1` [Compound 29, N-((6-(4-(4-cyanophenyl)-5-hydroxy-3-methyl-1H-pyrazol-1-yl)pyridin-3-yl)sulfonyl)acetamide], the IC50 in assay [1] and in assay [2] was below 0.1 µM each time.

Regarding `CC(=O)NS(=O)(=O)c1ccc(-n2nc(C)c(-c3ccc(Cl)cc3)c2O)nc1` [Compound 30, N-((6-(4-(4-chlorophenyl)-5-hydroxy-3-methyl-1H-pyrazol-1-yl)pyridin-3-yl)sulfonyl)acetamide], the IC50 in assay [1] and in assay [2] was below 0.1 µM each time.

Consider `Cc1nn(-c2ccc(NC(=O)N3CCOCC3)cn2)c(O)c1-c1ccc(C#N)cc1` [Compound 31, N-(6-(4-(4-cyanophenyl)-5-hydroxy-3-methyl-1H-pyrazol-1-yl)pyridin-3-yl)morpholine-4-carboxamide], for which the IC50 in assay [1] was 0.1 to 1 µM; in assay [2], below 0.1 µM.

For `Cc1nn(-c2ccc(NC(=O)N3CCNCC3)cn2)c(O)c1-c1ccc(C#N)cc1` [Compound 32, N-(6-(4-(4-cyanophenyl)-5-hydroxy-3-methyl-1H-pyrazol-1-yl)pyridin-3-yl)piperazine-1-carboxamide hydrochloride], the IC50 in assay [1] and in assay [2] was 0.1 to 1 µM in each case.

`Cc1nn(-c2ccc(S(=N)(=O)C3CC3)cn2)c(O)c1-c1ccc(C#N)cc1` (centres unmarked) [Compound 33, 4-(1-(5-(cyclopropanesulfonimidoyl)pyridin-2-yl)-5-hydroxy-3-methyl-1H-pyrazol-4-yl)benzonitrile]: the IC50 in assay [1] and in assay [2] was below 0.1 µM throughout.

Take `Cc1cc(-n2nc(C)c(-c3ccc(C#N)cc3)c2O)ncc1N1CCCC1=O` [Compound 37, 4-(5-hydroxy-3-methyl-1-(4-methyl-5-(2-oxopyrrolidin-1-yl)pyridin-2-yl)-1H-pyrazol-4-yl)benzonitrile]: the IC50 in assay [1] and in assay [2] was below 0.1 µM throughout.

For `Cc1cc(-n2nc(C)c(-c3ccc(C#N)cc3)c2O)ncc1S(N)(=O)=O` [Compound 38, 6-(4-(4-cyanophenyl)-5-hydroxy-3-methyl-1H-pyrazol-1-yl)-4-methylpyridine-3-sulfonamide], the IC50 in assay [1] and in assay [2] was below 0.1 µM in each case.

`Cc1cc(-n2nc(C)c(-c3ccc(C#N)cc3)c2O)ncc1NS(C)(=O)=O` [Compound 39, N-(6-(4-(4-cyanophenyl)-5-hydroxy-3-methyl-1H-pyrazol-1-yl)-4-methylpyridin-3-yl)methanesulfonamide]: the IC50 in assay [1] and in assay [2] was below 0.1 µM throughout.

For `Cc1cc(-n2nc(C)c(-c3ccc(C#N)cc3)c2O)ncc1S(C)(=N)=O` (centres unmarked) [Compound 40, 4-(5-hydroxy-3-methyl-1-(4-methyl-5-(S-methylsulfonimidoyl)pyridin-2-yl)-1H-pyrazol-4-yl)benzonitrile], the IC50 in assay [1] and in assay [2] was below 0.1 µM each time.

For `Cc1nn(-c2ccc([S@@](=N)(=O)C(C)C)cn2)c(O)c1-c1ccc(C#N)cc1` [Compound 41, (S)-4-(5-hydroxy-3-methyl-1-(5-(S-isopropylsulfonimidoyl)pyridin-2-yl)-1H-pyrazol-4-yl)benzonitrile], the IC50 in assay [1] and in assay [2] was below 0.1 µM in each case.

Regarding `Cc1nn(-c2ccc([S@](=N)(=O)C(C)C)cn2)c(O)c1-c1ccc(C#N)cc1` [Compound 42, (R)-4-(5-hydroxy-3-methyl-1-(5-(S-isopropylsulfonimidoyl)pyridin-2-yl)-1H-pyrazol-4-yl)benzonitrile], the IC50 in assay [1] and in assay [2] was below 0.1 µM throughout.

`Cc1nn(-c2ccc(C3CN(S(C)(=O)=O)C3)cn2)c(O)c1-c1ccc(C#N)cc1` [Compound 43, 4-(5-hydroxy-3-methyl-1-(5-(1-(methylsulfonyl)azetidin-3-yl)pyridin-2-yl)-1H-pyrazol-4-yl)benzonitrile]: the IC50 in assay [1] and in assay [2] was below 0.1 µM each time.

Regarding `Cc1nc(-n2nc(C)c(-c3ccc(C#N)cc3)c2O)ccc1S(C)(=O)=O` [Compound 45, 4-(5-hydroxy-3-methyl-1-(6-methyl-5-(methylsulfonyl)pyridin-2-yl)-1H-pyrazol-4-yl)benzonitrile], the IC50 in assay [1] and in assay [2] was 1 to 10 µM in each case.

For `Cc1cc(-n2nc(C)c(-c3ccc(C#N)cc3)c2O)ncc1S(C)(=O)=O` [Compound 46, 4-(5-hydroxy-3-methyl-1-(4-methyl-5-(methylsulfonyl)pyridin-2-yl)-1H-pyrazol-4-yl)benzonitrile], the IC50 in assay [1] and in assay [2] was below 0.1 µM in each case.

For `Cc1nn(-c2ccc(CC(=O)O)cn2)c(O)c1-c1ccc(C#N)cc1` [Compound 47, 2-(6-(4-(4-cyanophenyl)-5-hydroxy-3-methyl-1H-pyrazol-1-yl)pyridin-3-yl)acetic acid], the half-inhibitory concentration (IC50) in assay [1] and in assay [2] was below 0.1 µM each time.

In the case of `Cc1cc(-c2c(C)nn(-c3ccc(S(C)(=O)=O)cn3)c2O)ccc1O` [Compound 48, 4-(4-hydroxy-3-methylphenyl)-3-methyl-1-(5-(methylsulfonyl)pyridin-2-yl)-1H-pyrazol-5-ol], the IC50 in assay [1] and in assay [2] was 0.1 to 1 µM each time.

`COc1ccc(-c2c(C)nn(-c3ccc(S(C)(=O)=O)cn3)c2O)cc1C` [Compound 49, 4-(4-methoxy-3-methylphenyl)-3-methyl-1-(5-(methylsulfonyl)pyridin-2-yl)-1H-pyrazol-5-ol]: the IC50 in assay [1] and in assay [2] was 0.1 to 1 µM in each case.

As to `Cc1nn(-c2ccc(-c3nn[nH]n3)cn2)c(O)c1-c1ccc(C#N)cc1` [Compound 50, 4-(1-(5-(2H-tetrazol-5-yl)pyridin-2-yl)-5-hydroxy-3-methyl-1H-pyrazol-4-yl)benzonitrile], the IC50 in assay [1] and in assay [2] was below 0.1 µM throughout.

Consider `CNS(=O)(=O)Nc1ccc(-n2nc(C)c(-c3ccc(C#N)cc3)c2O)nc1` [Compound 51, N-(6-(4-(4-cyanophenyl)-5-hydroxy-3-methyl-1H-pyrazol-1-yl)pyridin-3-yl)-N′-methylsulfamide], for which the IC50 in assay [1] and in assay [2] was below 0.1 µM each time.

In the case of `Cc1nn(-c2ccc(NS(=O)(=O)N(C)C)cn2)c(O)c1-c1ccc(C#N)cc1` [Compound 52, N-(6-(4-(4-cyanophenyl)-5-hydroxy-3-methyl-1H-pyrazol-1-yl)pyridin-3-yl)-N′-dimethylsulfamide], the IC50 in assay [1] and in assay [2] was below 0.1 µM each time.

With `Cc1nn(-c2cc(C3CC3)c(S(C)(=O)=O)cn2)c(O)c1-c1ccc(C#N)cc1` [Compound 53, 4-(1-(4-cyclopropyl-5-(methylsulfonyl)pyridin-2-yl)-5-hydroxy-3-methyl-1H-pyrazol-4-yl)benzonitrile], the IC50 in assay [1] and in assay [2] was below 0.1 µM each time.

Consider `Cc1nn(-c2ccc(-c3ncco3)cn2)c(O)c1-c1ccc(C#N)cc1` [Compound 59, 4-(5-Hydroxy-3-methyl-1-(5-(oxazol-2-yl)pyridin-2-yl)-1H-pyrazol-4-yl)benzonitrile], for which the 50% inhibitory concentration (IC50) in assay [1] and in assay [2] was below 0.1 µM in each case.

On to `Cc1nn(-c2ccc(-c3nccs3)cn2)c(O)c1-c1ccc(C#N)cc1` [Compound 60, 4-(5-Hydroxy-3-methyl-1-(5-(thiazol-2-yl)pyridin-2-yl)-1H-pyrazol-4-yl)benzonitrile], for which the concentration for half-maximal inhibition (IC50) in assay [1] was 0.1 to 1 µM; in assay [2], below 0.1 µM.

For the compound `Cc1nn(-c2ccc(-c3ncc(-c4ccccc4)s3)cn2)c(O)c1-c1ccc(C#N)cc1` [Compound 61, 4-(5-Hydroxy-3-methyl-1-(5-(5-phenylthiazol-2-yl)pyridin-2-yl)-1H-pyrazol-4-yl)benzonitrile], the IC50 in assay [1] was above 10 µM; in assay [2] it was below 0.1 µM.

As for `Cc1nn(-c2ccc(-c3nc(-c4ccccc4)cs3)cn2)c(O)c1-c1ccc(C#N)cc1` [Compound 62, 4-(5-Hydroxy-3-methyl-1-(5-(4-phenylthiazol-2-yl)pyridin-2-yl)-1H-pyrazol-4-yl)benzonitrile], the IC50 in assay [1] is above 10 µM; in assay [2], 0.1 to 1 µM.

As to `Cc1nn(-c2ccc(-n3cccn3)cn2)c(O)c1-c1ccc(C#N)cc1` [Compound 63, 4-(1-(5-(1H-pyrazol-1-yl)pyridin-2-yl)-5-hydroxy-3-methyl-1H-pyrazol-4-yl)benzonitrile], the IC50 in assay [1] is 0.1 to 1 µM; in assay [2], below 0.1 µM.

As for `Cc1nn(-c2ccc(-n3cc(-c4ccccc4)cn3)cn2)c(O)c1-c1ccc(C#N)cc1` [Compound 64, 4-(5-Hydroxy-3-methyl-1-(5-(4-phenyl-1H-pyrazol-1-yl)pyridin-2-yl)-1H-pyrazol-4-yl)benzonitrile], the results for the IC50 in assay [1] and in assay [2] were 0.1 to 1 µM and below 0.1 µM, respectively.

Turning to `Cc1nn(-c2ccc([S@@](=N)(=O)C3CC3)cn2)c(O)c1-c1ccc(Cl)cc1` [Compound 65, (S)-(6-(4-(4-chlorophenyl)-5-hydroxy-3-methyl-1H-pyrazol-1-yl)pyridin-3-yl)(cyclopropyl)(imino)-λ^6-sulfanone], the IC50 in assay [1] and in assay [2] was below 0.1 µM in each case.
